Type in all cases: functional
Holding throughout (conditions): time 16-20 hrs

The subject of one experiment is Escherichia coli. Description: Antibacterial activity against Escherichia coli ATCC 25922 incubated for 16 to 20 hrs by broth microdilution method. In general terms: Dilution methods test growth across graded concentrations, often in twofold steps.
Another experiment deals with Klebsiella pneumoniae. Description: Antibacterial activity against Klebsiella pneumoniae ATCC 13883 incubated for 16 to 20 hrs by broth microdilution method.
For another experiment, the system named is Cronobacter sakazakii. Description: Antibacterial activity against Cronobacter sakazakii ATCC 29544 incubated for 16 to 20 hrs by broth microdilution method.
A further experiment has as its system Staphylococcus aureus. Kind of experiment: Antibacterial activity against Staphylococcus aureus ATCC 25923 incubated for 16 to 20 hrs by broth microdilution method.

For eleven compounds, MIC results are on record in ChEMBL document CHEMBL5126592, “Design, synthesis and activity against drug-resistant bacteria evaluation of C-20, C-23 modified 5-O-mycaminosyltylonolide derivatives” (Eur J Med Chem, 2022).

≈ marks a conversion by molar mass, not a printed value.

Broadly, the MIC is the least concentration at which growth counts as inhibited. Turning to `CC[C@H]1OC(=O)C[C@@H](O)[C@H](C)[C@@H](O[C@@H]2O[C@H](C)[C@@H](O)[C@H](N(C)C)[C@H]2O)[C@@H](CCN(Cc2ccc(C(F)(F)F)cc2)Cc2cn(-c3cnc4ccccc4c3)nn2)C[C@@H](C)C(=O)/C=C/C(C)=C/[C@@H]1CN1CCCCC1`, the MIC in the experiment on Escherichia coli was determined as 8 µg/mL (≈ 7.75 µM); against Klebsiella pneumoniae, 16 µg/mL (≈ 15.5 µM); with Cronobacter sakazakii it was 16 µg/mL (≈ 15.5 µM); with Staphylococcus aureus, 1 µg/mL (≈ 0.969 µM).
Turning to `CC[C@H]1OC(=O)C[C@@H](O)[C@H](C)[C@@H](O[C@@H]2O[C@H](C)[C@@H](O)[C@H](N(C)C)[C@H]2O)[C@@H](CCN(Cc2cn(-c3cnc4ccccc4c3)nn2)Cc2ccco2)C[C@@H](C)C(=O)/C=C/C(C)=C/[C@@H]1CI`, the MIC was 32 µg/mL (≈ 32.1 µM) in the experiment on Escherichia coli, 16 µg/mL (≈ 16 µM) in the experiment with Klebsiella pneumoniae, 16 µg/mL (≈ 16 µM) in the experiment with Cronobacter sakazakii and 2 µg/mL (≈ 2.01 µM) with Staphylococcus aureus.
As for `CC[C@H]1OC(=O)C[C@@H](O)[C@H](C)[C@@H](O[C@@H]2O[C@H](C)[C@@H](O)[C@H](N(C)C)[C@H]2O)[C@@H](CCN(Cc2ccncc2)Cc2cn(-c3cnc4ccccc4c3)nn2)C[C@@H](C)C(=O)/C=C/C(C)=C/[C@@H]1CO`, the minimum inhibitory concentration (MIC) against Escherichia coli amounted to 32 µg/mL (≈ 35.6 µM); in the experiment on Klebsiella pneumoniae, 32 µg/mL (≈ 35.6 µM); against Cronobacter sakazakii, 32 µg/mL (≈ 35.6 µM); against Staphylococcus aureus it was 0.125 µg/mL (≈ 0.139 µM).
On to `CC[C@H]1OC(=O)C[C@@H](O)[C@H](C)[C@@H](O[C@@H]2O[C@H](C)[C@@H](O)[C@H](N(C)C)[C@H]2O)[C@@H](CCN(Cc2ccc(N(C)C)cc2)Cc2cn(-c3cnc4ccccc4c3)nn2)C[C@@H](C)C(=O)/C=C/C(C)=C/[C@@H]1CN1CC(C)CC(C)C1` (some centres undefined), for which the MIC in the experiment with Escherichia coli was 8 µg/mL (≈ 7.73 µM); against Klebsiella pneumoniae it was 32 µg/mL (≈ 30.9 µM); against Cronobacter sakazakii, 32 µg/mL (≈ 30.9 µM); in the experiment on Staphylococcus aureus it was 2 µg/mL (≈ 1.93 µM).
`CC[C@H]1OC(=O)C[C@@H](O)[C@H](C)[C@@H](O[C@@H]2O[C@H](C)[C@@H](O)[C@H](N(C)C)[C@H]2O)[C@@H](CCN(Cc2cn(-c3cnc4ccccc4c3)nn2)Cc2c(OC)cc(OC)cc2OC)C[C@@H](C)C(=O)/C=C/C(C)=C/[C@@H]1CO`: the minimum inhibitory concentration (MIC) against Escherichia coli is 16 µg/mL (≈ 16.2 µM); against Klebsiella pneumoniae, 32 µg/mL (≈ 32.4 µM); against Cronobacter sakazakii it was 32 µg/mL (≈ 32.4 µM); against Staphylococcus aureus, 0.5 µg/mL (≈ 0.506 µM).
As for `CC[C@H]1OC(=O)C[C@@H](O)[C@H](C)[C@@H](O[C@@H]2O[C@H](C)[C@@H](O)[C@H](N(C)C)[C@H]2O)[C@@H](CCN(Cc2cn(-c3cnc4ccccc4c3)nn2)Cc2ccco2)C[C@@H](C)C(=O)/C=C/C(C)=C/[C@@H]1CN1CCCCCCC1`, the MIC with Escherichia coli was 4 µg/mL (≈ 4.07 µM); in the experiment on Klebsiella pneumoniae it was 8 µg/mL (≈ 8.14 µM); in the experiment with Cronobacter sakazakii it was 32 µg/mL (≈ 32.6 µM); in the experiment on Staphylococcus aureus, 1 µg/mL (≈ 1.02 µM).
`CC[C@H]1OC(=O)C[C@@H](O)[C@H](C)[C@@H](O[C@@H]2O[C@H](C)[C@@H](O)[C@H](N(C)C)[C@H]2O)[C@@H](CCN(Cc2ccccc2)Cc2cn(-c3cnc4ccccc4c3)nn2)C[C@@H](C)C(=O)/C=C/C(C)=C/[C@@H]1CN1CCCCC1`: the MIC against Escherichia coli worked out at 8 µg/mL (≈ 8.3 µM); in the experiment on Klebsiella pneumoniae, 8 µg/mL (≈ 8.3 µM); in the experiment on Cronobacter sakazakii, 8 µg/mL (≈ 8.3 µM); in the experiment on Staphylococcus aureus it was 1 µg/mL (≈ 1.04 µM).
Consider `CC[C@H]1OC(=O)C[C@@H](O)[C@H](C)[C@@H](O[C@@H]2O[C@H](C)[C@@H](O)[C@H](N(C)C)[C@H]2O)[C@@H](CCN(Cc2ccc([N+](=O)[O-])cc2)Cc2cn(-c3cnc4ccccc4c3)nn2)C[C@@H](C)C(=O)/C=C/C(C)=C/[C@@H]1CO`, for which the MIC in the experiment with Escherichia coli was found to be 32 µg/mL (≈ 34 µM); with Klebsiella pneumoniae, 32 µg/mL (≈ 34 µM); in the experiment on Cronobacter sakazakii, 32 µg/mL (≈ 34 µM); against Staphylococcus aureus, 0.25 µg/mL (≈ 0.265 µM).
As for `CC[C@H]1OC(=O)C[C@@H](O)[C@H](C)[C@@H](O[C@@H]2O[C@H](C)[C@@H](O)[C@H](N(C)C)[C@H]2O)[C@@H](CCN(Cc2ccc(OC)cc2)Cc2cn(-c3cnc4ccccc4c3)nn2)C[C@@H](C)C(=O)/C=C/C(C)=C/[C@@H]1CN1CCC(O)CC1`, the minimal inhibitory concentration (MIC) with Escherichia coli turned out to be 8 µg/mL (≈ 7.92 µM); in the experiment on Klebsiella pneumoniae it was 8 µg/mL (≈ 7.92 µM); in the experiment on Cronobacter sakazakii, 32 µg/mL (≈ 31.7 µM); in the experiment on Staphylococcus aureus, 2 µg/mL (≈ 1.98 µM).
Regarding `CCc1ccc(CN(CC[C@H]2C[C@@H](C)C(=O)/C=C/C(C)=C/[C@H](CO)[C@@H](CC)OC(=O)C[C@@H](O)[C@H](C)[C@H]2O[C@@H]2O[C@H](C)[C@@H](O)[C@H](N(C)C)[C@H]2O)Cc2cn(-c3cnc4ccccc4c3)nn2)cc1`, the MIC is 32 µg/mL (≈ 34.6 µM) in the experiment with Escherichia coli, 16 µg/mL (≈ 17.3 µM) against Klebsiella pneumoniae, 16 µg/mL (≈ 17.3 µM) in the experiment on Cronobacter sakazakii and 0.5 µg/mL (≈ 0.54 µM) in the experiment with Staphylococcus aureus.
On to `CC[C@H]1OC(=O)C[C@@H](O)[C@H](C)[C@@H](O[C@@H]2O[C@H](C)[C@@H](O)[C@H](N(C)C)[C@H]2O)[C@@H](CCN(Cc2ccc(N(C)C)cc2)Cc2cn(-c3cnc4ccccc4c3)nn2)C[C@@H](C)C(=O)/C=C/C(C)=C/[C@@H]1CO`, for which the MIC against Escherichia coli turned out to be 8 µg/mL (≈ 8.51 µM); against Klebsiella pneumoniae, 16 µg/mL (≈ 17 µM); in the experiment with Cronobacter sakazakii, 16 µg/mL (≈ 17 µM); with Staphylococcus aureus, 0.25 µg/mL (≈ 0.266 µM).
